{"source": "paper PMC7347136", "about": "(PLoS ONE, 2020)", "key": {"[1]": {"tested_on": "all five cell lines (Cal51, MDA-MB-468, HCC1954, MCF10A, 184A1)", "assay": "Standard 72 h viability assay, breast panel", "format": "cell-based", "conditions": "Homo sapiens", "experimental": "Solid tumor cell lines were seeded in 100 μl medium into 96-well plates at an appropriate cell number determined by a cell dilution assay (Cal51–2000 cells/well; Colo205, MCF10A and 184A1–3000 cells/well and MDA-MB-468, HCC1954–4000 cells/well). AML suspension cells were seeded in 96-well plates at approximately 3000 cells per well. Cells were incubated overnight at 37°C, 5% CO2. The following day, 100 μl fresh medium containing increasing concentrations of appropriate compound was added and the cells were incubated for up to 72 h at 37°C, 5% CO2. For pulse treatment of solid (adherent) tumor cell lines, medium was aspirated and replaced with fresh drug-free medium. For pulse treatment of suspension lines, plates were centrifuged at 478 xg for 5 min at the end of the incubation period with compound, medium containing compound was carefully aspirated and replaced with fresh compound-free medium. A total of 72 h after the start of treatment, 20 μl of a 10X stock of resazurin sodium salt (Sigma-Aldrich, Dorset, UK) prepared in medium was added to the cells and incubated for up to 3 h. […] was measured on the Wallac Victor plate reader (Cambridge, UK) at 544–595 nm. IC50/70/90 calculations were determined in XLFit."}, "sensitive AML cell lines": {"tested_on": "sensitive AML cell lines", "assay": "Viacount viability assay by flow cytometry", "format": "cell-based", "conditions": "Homo sapiens, 6 h pulse, assessed at 48 h, read-out: non-viable cells", "experimental": "AML cells were seeded at 5 x 10^5 cells/ml in a 6-well plate and incubated with the test compound or vehicle control (DMSO) for 6, 8 or 10 h. At the end of the incubation period, cells were collected into Falcon tubes, pelleted via centrifugation (5 min at 478 x g), and medium containing compound was aspirated. The cells were resuspended in 4 ml of fresh compound-free medium and returned to the 6-well plates for further incubation. Following compound addition, 100 μl (at 24 h), 75 μl (at 48 h), 50 μl (at 72 h) or 30 μl (at 96 h) of a homogeneous suspension of cells were removed from the culture, made up to 100 μl with medium and mixed with 100 μl Guava Viacount reagent (Millipore, Nottingham, UK) in a 96-well plate. Samples were incubated for 20 min in the dark, mixed and then analyzed by GuavaSoft 2.6 software on the Guava Easycyte 8HT (Millipore). Guava Viacount software was used to gate and calculate the proportion of viable and dead cells in the population."}, "MST2": {"biological_target": "T1, MST2 (Homo sapiens, UniProt Q13188)", "T1 construct": "purchased Carna Biosciences", "assay": "Carna kinase panel screen", "format": "biochemical", "conditions": "read-out: % Inhibition ± SD", "experimental": "(§1) IC50 values were determined from a 10-point concentration curve using ATP concentrations approximating Km values. […] The percentage inhibition of each test solution was calculated, which allowed the IC50 value to be determined from concentration versus percentage inhibition curves by fitting to a four parameter logistic curve."}, "FGFR2": {"biological_target": "T2, FGFR2 (Homo sapiens, UniProt P21802)", "T2 construct": "purchased Carna Biosciences", "assay": "Carna kinase panel screen", "format": "biochemical", "conditions": "read-out: % Inhibition ± SD", "experimental": "as §1"}, "EphA1": {"biological_target": "T3, EphA1 (Homo sapiens, UniProt P21709)", "T3 construct": "purchased Carna Biosciences", "T3 sequence (P21709 26-976)": "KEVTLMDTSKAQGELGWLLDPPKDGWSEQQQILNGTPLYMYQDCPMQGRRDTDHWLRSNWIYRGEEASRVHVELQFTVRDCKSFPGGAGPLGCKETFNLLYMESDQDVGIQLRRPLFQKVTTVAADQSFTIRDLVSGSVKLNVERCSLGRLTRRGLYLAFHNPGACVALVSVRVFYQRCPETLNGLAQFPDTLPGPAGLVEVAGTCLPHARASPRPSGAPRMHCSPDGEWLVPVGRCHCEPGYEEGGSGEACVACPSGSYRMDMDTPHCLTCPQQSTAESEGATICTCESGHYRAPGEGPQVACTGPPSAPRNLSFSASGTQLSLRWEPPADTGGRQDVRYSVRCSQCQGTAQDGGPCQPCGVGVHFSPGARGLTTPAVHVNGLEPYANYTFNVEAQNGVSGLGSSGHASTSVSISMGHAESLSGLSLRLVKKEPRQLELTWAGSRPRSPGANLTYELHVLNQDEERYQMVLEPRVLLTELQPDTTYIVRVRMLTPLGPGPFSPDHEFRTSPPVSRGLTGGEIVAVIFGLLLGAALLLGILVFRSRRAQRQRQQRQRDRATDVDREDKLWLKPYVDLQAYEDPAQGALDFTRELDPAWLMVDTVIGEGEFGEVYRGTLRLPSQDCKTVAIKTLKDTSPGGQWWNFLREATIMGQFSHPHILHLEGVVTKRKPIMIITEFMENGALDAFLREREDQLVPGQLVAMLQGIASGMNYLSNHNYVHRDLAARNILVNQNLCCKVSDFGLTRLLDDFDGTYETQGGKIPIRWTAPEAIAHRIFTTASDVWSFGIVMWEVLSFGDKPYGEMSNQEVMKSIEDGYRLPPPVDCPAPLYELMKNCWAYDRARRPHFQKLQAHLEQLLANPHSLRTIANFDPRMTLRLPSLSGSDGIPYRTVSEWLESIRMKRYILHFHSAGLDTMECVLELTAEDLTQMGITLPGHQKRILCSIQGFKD", "assay": "Carna kinase panel screen", "format": "biochemical", "conditions": "read-out: % Inhibition ± SD", "experimental": "as §1"}, "PAK1": {"biological_target": "T4, PAK1 (Homo sapiens, UniProt Q13153)", "T4 construct": "purchased Carna Biosciences", "assay": "Carna kinase panel screen", "format": "biochemical", "conditions": "read-out: % Inhibition ± SD", "experimental": "as §1"}, "EphB2": {"biological_target": "T5, EphB2 (Homo sapiens, UniProt P29323)", "T5 construct": "purchased Carna Biosciences", "assay": "Carna kinase panel screen", "format": "biochemical", "conditions": "read-out: % Inhibition ± SD", "experimental": "as §1"}, "SYK": {"biological_target": "T6, SYK (Homo sapiens, UniProt P43405)", "T6 construct": "purchased Carna Biosciences", "assay": "Carna kinase panel screen", "format": "biochemical", "conditions": "read-out: % Inhibition ± SD", "experimental": "as §1"}, "TSSK2": {"biological_target": "T7, TSSK2 (Homo sapiens, UniProt Q96PF2)", "T7 construct": "purchased Carna Biosciences", "assay": "Carna kinase panel screen", "format": "biochemical", "conditions": "read-out: % Inhibition ± SD", "experimental": "as §1"}, "CLK2": {"biological_target": "T8, CLK2 (Homo sapiens, UniProt P49760)", "T8 construct": "purchased Carna Biosciences", "assay": "Carna kinase panel screen", "format": "biochemical", "conditions": "read-out: % Inhibition ± SD", "experimental": "as §1"}, "PDK1": {"biological_target": "T9, PDK1 (Homo sapiens, UniProt O15530)", "T9 construct": "purchased Carna Biosciences", "assay": "Carna kinase panel screen", "format": "biochemical", "conditions": "read-out: % Inhibition ± SD", "experimental": "as §1"}, "CaMK2g": {"biological_target": "T10, CaMK2g (Homo sapiens, UniProt Q13555)", "T10 construct": "purchased Carna Biosciences", "assay": "Carna kinase panel screen", "format": "biochemical", "conditions": "read-out: % Inhibition ± SD", "experimental": "as §1"}, "Erk1": {"biological_target": "T11, Erk1 (Homo sapiens, UniProt P27361)", "T11 construct": "purchased Carna Biosciences", "assay": "Carna kinase panel screen", "format": "biochemical", "conditions": "read-out: % Inhibition ± SD", "experimental": "as §1"}, "PLK4": {"biological_target": "T12, PLK4 (Homo sapiens, UniProt O00444)", "T12 construct": "purchased Carna Biosciences", "assay": "Carna kinase panel screen", "format": "biochemical", "conditions": "read-out: % Inhibition ± SD", "experimental": "as §1"}, "RSK4": {"biological_target": "T13, RSK4 (Homo sapiens, UniProt Q9UK32)", "T13 construct": "purchased Carna Biosciences", "assay": "Carna kinase panel screen", "format": "biochemical", "conditions": "read-out: % Inhibition ± SD", "experimental": "as §1"}, "NEK6": {"biological_target": "T14, NEK6 (Homo sapiens, UniProt Q9HC98)", "T14 construct": "purchased Carna Biosciences", "assay": "Carna kinase panel screen", "format": "biochemical", "conditions": "read-out: % Inhibition ± SD", "experimental": "as §1"}, "PKN1": {"biological_target": "T15, PKN1 (Homo sapiens, UniProt Q16512)", "T15 construct": "purchased Carna Biosciences", "assay": "Carna kinase panel screen", "format": "biochemical", "conditions": "read-out: % Inhibition ± SD", "experimental": "as §1"}, "EphB1": {"biological_target": "T16, EphB1 (Homo sapiens, UniProt P54762)", "T16 construct": "purchased Carna Biosciences", "assay": "Carna kinase panel screen", "format": "biochemical", "conditions": "read-out: % Inhibition ± SD", "experimental": "as §1"}, "LYNb": {"biological_target": "T17, LYNb (Homo sapiens, UniProt P07948)", "T17 construct": "purchased Carna Biosciences", "T17 sequence (P07948 1-491 isoform P07948-2)": "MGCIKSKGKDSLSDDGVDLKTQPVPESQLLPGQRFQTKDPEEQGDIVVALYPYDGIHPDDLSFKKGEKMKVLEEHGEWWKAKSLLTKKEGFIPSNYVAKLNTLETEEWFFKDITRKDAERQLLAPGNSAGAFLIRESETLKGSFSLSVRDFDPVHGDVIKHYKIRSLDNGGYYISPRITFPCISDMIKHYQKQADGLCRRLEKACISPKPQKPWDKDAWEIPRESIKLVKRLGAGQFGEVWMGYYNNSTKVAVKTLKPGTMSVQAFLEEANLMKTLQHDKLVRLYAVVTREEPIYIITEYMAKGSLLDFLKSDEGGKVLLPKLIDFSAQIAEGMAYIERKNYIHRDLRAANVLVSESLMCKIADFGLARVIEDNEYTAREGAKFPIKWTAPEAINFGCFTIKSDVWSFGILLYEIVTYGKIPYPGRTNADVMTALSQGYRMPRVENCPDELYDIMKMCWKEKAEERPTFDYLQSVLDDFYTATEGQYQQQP", "assay": "Carna kinase panel screen", "format": "biochemical", "conditions": "read-out: % Inhibition ± SD", "experimental": "as §1"}, "AMPKa2": {"biological_target": "T18, AMPKa2 (Homo sapiens, UniProt P54646)", "T18 construct": "purchased Carna Biosciences", "assay": "Carna kinase panel screen", "format": "biochemical", "conditions": "read-out: % Inhibition ± SD", "experimental": "as §1"}, "FYN": {"biological_target": "T19, FYN (Homo sapiens, UniProt P06241)", "T19 construct": "purchased Carna Biosciences", "assay": "Carna kinase panel screen", "format": "biochemical", "conditions": "read-out: % Inhibition ± SD", "experimental": "as §1"}, "HER4": {"biological_target": "T20, HER4 (Homo sapiens, UniProt Q15303)", "T20 construct": "purchased Carna Biosciences", "assay": "Carna kinase panel screen", "format": "biochemical", "conditions": "read-out: % Inhibition ± SD", "experimental": "as §1"}, "AKT1": {"biological_target": "T21, AKT1 (Homo sapiens, UniProt P31749)", "T21 construct": "purchased Carna Biosciences", "assay": "Carna kinase panel screen", "format": "biochemical", "conditions": "read-out: % Inhibition ± SD", "experimental": "as §1"}, "IKKb": {"biological_target": "T22, IKKb (Homo sapiens, UniProt O14920)", "T22 construct": "purchased Carna Biosciences", "assay": "Carna kinase panel screen", "format": "biochemical", "conditions": "read-out: % Inhibition ± SD", "experimental": "as §1"}, "FGFR3[K650E]": {"biological_target": "T23, FGFR3[K650E] (Homo sapiens, UniProt P22607, K650E)", "T23 construct": "purchased Carna Biosciences", "T23 sequence (P22607 23-806 K650E)": "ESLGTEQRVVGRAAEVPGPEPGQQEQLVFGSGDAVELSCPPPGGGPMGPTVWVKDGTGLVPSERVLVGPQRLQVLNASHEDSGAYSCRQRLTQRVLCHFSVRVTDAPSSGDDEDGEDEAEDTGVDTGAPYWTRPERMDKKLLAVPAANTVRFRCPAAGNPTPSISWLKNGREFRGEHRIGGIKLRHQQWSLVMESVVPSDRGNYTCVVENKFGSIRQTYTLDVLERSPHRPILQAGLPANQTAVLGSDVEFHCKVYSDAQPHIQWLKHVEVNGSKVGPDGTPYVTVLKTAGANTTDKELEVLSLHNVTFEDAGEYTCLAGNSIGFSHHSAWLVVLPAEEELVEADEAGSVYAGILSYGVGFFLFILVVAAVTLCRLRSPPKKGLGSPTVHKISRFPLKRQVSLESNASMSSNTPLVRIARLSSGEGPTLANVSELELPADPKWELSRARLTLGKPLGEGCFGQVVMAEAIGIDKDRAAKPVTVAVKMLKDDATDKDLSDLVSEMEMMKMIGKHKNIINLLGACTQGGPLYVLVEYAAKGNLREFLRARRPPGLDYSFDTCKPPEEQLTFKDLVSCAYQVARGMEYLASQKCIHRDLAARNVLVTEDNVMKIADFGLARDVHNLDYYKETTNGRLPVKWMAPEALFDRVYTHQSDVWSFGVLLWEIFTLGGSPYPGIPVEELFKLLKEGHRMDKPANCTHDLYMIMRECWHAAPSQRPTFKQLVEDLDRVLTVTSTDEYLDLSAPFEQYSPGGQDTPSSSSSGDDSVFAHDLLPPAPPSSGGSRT", "assay": "Carna kinase panel screen", "format": "biochemical", "conditions": "read-out: % Inhibition ± SD", "experimental": "as §1"}, "PKD3": {"biological_target": "T24, PKD3 (Homo sapiens, UniProt O94806)", "T24 construct": "purchased Carna Biosciences", "T24 sequence (O94806 whole entry)": "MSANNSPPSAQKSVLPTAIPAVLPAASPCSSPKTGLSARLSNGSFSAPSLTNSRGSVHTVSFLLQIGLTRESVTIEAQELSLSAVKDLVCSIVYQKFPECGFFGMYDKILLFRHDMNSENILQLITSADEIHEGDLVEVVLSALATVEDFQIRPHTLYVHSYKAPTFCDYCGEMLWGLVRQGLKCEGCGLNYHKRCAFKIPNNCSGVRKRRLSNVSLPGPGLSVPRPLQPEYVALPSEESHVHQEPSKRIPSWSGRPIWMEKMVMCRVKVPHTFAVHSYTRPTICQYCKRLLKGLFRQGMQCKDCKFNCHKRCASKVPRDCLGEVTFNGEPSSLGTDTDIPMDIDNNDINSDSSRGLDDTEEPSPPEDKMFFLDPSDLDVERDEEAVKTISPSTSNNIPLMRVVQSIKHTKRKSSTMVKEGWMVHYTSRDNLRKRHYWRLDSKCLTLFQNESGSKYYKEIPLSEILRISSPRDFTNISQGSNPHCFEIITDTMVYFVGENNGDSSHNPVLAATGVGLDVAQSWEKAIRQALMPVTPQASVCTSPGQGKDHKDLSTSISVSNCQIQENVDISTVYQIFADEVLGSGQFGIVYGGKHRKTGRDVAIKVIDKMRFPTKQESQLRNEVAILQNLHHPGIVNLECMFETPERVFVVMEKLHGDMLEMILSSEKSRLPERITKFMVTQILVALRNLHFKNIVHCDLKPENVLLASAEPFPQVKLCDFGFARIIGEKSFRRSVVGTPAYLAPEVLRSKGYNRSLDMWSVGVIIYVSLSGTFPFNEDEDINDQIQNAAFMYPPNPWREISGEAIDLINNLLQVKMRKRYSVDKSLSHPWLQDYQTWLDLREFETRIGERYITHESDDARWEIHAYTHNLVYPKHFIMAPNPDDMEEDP", "assay": "Carna kinase panel screen", "format": "biochemical", "conditions": "read-out: % Inhibition ± SD", "experimental": "as §1"}, "PKCb1": {"biological_target": "T25, PKCb1 (Homo sapiens, UniProt P05771)", "T25 construct": "purchased Carna Biosciences", "T25 sequence (P05771 whole entry)": "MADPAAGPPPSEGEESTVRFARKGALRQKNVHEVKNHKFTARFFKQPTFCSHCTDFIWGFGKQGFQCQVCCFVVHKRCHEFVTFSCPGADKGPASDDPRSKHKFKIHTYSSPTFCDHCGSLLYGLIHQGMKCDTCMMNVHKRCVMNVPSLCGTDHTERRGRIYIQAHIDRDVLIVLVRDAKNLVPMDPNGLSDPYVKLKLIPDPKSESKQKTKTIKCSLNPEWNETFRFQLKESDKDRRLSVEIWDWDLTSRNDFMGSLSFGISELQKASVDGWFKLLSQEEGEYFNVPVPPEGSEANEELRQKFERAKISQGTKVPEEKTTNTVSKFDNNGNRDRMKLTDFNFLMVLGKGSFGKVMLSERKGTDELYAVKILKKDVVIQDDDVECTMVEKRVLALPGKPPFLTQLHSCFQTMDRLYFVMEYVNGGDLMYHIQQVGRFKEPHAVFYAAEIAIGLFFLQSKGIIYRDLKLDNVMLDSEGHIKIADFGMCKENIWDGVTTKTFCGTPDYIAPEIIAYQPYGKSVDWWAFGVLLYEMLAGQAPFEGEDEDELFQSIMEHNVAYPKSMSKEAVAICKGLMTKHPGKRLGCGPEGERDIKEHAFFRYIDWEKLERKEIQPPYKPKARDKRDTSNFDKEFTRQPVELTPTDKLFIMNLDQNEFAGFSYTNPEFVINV", "assay": "Carna kinase panel screen", "format": "biochemical", "conditions": "read-out: % Inhibition ± SD", "experimental": "as §1"}, "FLT1": {"biological_target": "T26, FLT1 (Homo sapiens, UniProt P17948)", "T26 construct": "purchased Carna Biosciences", "assay": "Carna kinase panel screen", "format": "biochemical", "conditions": "read-out: % Inhibition ± SD", "experimental": "as §1"}, "EphA4": {"biological_target": "T27, EphA4 (Homo sapiens, UniProt P54764)", "T27 construct": "purchased Carna Biosciences", "T27 sequence (P54764 20-986)": "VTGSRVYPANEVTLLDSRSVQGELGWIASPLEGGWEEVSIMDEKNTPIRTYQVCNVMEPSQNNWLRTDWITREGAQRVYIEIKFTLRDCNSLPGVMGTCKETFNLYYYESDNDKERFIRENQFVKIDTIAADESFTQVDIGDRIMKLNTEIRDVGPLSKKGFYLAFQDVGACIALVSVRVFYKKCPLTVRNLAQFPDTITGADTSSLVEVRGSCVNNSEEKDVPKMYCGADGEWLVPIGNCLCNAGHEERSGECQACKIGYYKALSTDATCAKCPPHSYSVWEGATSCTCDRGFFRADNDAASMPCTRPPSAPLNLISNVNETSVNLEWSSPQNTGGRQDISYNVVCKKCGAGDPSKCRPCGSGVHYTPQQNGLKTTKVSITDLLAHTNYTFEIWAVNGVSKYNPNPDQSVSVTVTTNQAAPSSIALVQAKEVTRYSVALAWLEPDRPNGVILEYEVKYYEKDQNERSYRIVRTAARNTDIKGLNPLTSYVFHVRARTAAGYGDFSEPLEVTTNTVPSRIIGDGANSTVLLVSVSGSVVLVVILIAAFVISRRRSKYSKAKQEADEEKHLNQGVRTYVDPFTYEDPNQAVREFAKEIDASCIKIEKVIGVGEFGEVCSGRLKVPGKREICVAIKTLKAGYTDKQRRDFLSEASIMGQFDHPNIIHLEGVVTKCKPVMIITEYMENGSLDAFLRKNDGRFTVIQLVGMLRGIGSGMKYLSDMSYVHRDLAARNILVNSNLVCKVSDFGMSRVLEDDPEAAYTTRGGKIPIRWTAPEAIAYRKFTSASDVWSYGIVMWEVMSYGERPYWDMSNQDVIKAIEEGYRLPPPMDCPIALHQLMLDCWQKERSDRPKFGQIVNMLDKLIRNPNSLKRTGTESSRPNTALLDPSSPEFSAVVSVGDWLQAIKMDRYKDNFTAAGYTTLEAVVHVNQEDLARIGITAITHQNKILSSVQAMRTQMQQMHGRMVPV", "assay": "Carna kinase panel screen", "format": "biochemical", "conditions": "read-out: % Inhibition ± SD", "experimental": "as §1"}}}
{"smiles": "CC[C@H](Nc1nc(NCc2cnc(C)cc2C)c2ncn(C(C)C)c2n1)[C@@H](C)O", "note": "[Fadraciclib, 2-pentanol, 3-[[6-[[(4,6-dimethyl-3-pyridinyl)methyl]amino]-9-(1-methylethyl)-9Hpurin-2-yl]amino]-, (2R,3S)]", "values": [{"measurement": "IC50", "setting": "[1]", "value": "≤ 400", "unit": "nM"}, {"measurement": "cytotoxicity at 1 µM", "setting": "sensitive AML cell lines", "value": "~100", "unit": "%"}, {"measurement": "inhibition at 1 µM", "setting": "MST2", "value": -1.5, "unit": "%"}, {"measurement": "inhibition at 1 µM", "setting": "FGFR2", "value": "-17.6 ± 2.2", "unit": "%"}, {"measurement": "inhibition at 1 µM", "setting": "EphA1", "value": 5.1, "unit": "%"}, {"measurement": "inhibition at 1 µM", "setting": "PAK1", "value": "-5.8 ± 0.2", "unit": "%"}, {"measurement": "inhibition at 1 µM", "setting": "EphB2", "value": "5 ± 0.2", "unit": "%"}, {"measurement": "inhibition at 1 µM", "setting": "SYK", "value": "2.2 ± 0.1", "unit": "%"}, {"measurement": "inhibition at 1 µM", "setting": "TSSK2", "value": 0.7, "unit": "%"}, {"measurement": "inhibition at 1 µM", "setting": "CLK2", "value": "87.8 ± 2", "unit": "%"}, {"measurement": "inhibition at 1 µM", "setting": "PDK1", "value": "-5.4 ± 0.1", "unit": "%"}, {"measurement": "inhibition at 1 µM", "setting": "CaMK2g", "value": "12.5 ± 0.4", "unit": "%"}, {"measurement": "inhibition at 1 µM", "setting": "Erk1", "value": -6.5, "unit": "%"}, {"measurement": "inhibition at 1 µM", "setting": "PLK4", "value": "-38.5 ± 1", "unit": "%"}, {"measurement": "inhibition at 1 µM", "setting": "RSK4", "value": "6 ± 0.2", "unit": "%"}, {"measurement": "inhibition at 1 µM", "setting": "NEK6", "value": "-16.6 ± 0.5", "unit": "%"}, {"measurement": "inhibition at 1 µM", "setting": "PKN1", "value": "-17.7 ± 0.1", "unit": "%"}, {"measurement": "inhibition at 1 µM", "setting": "EphB1", "value": "3.9 ± 0.1", "unit": "%"}, {"measurement": "inhibition at 1 µM", "setting": "LYNb", "value": "-8.7 ± 0.1", "unit": "%"}, {"measurement": "inhibition at 1 µM", "setting": "AMPKa2", "value": "-12.8 ± 0.7", "unit": "%"}, {"measurement": "inhibition at 1 µM", "setting": "FYN", "value": "7.4 ± 0.3", "unit": "%"}, {"measurement": "inhibition at 1 µM", "setting": "HER4", "value": "-13 ± 0.3", "unit": "%"}, {"measurement": "inhibition at 1 µM", "setting": "AKT1", "value": -0.6, "unit": "%"}, {"measurement": "inhibition at 1 µM", "setting": "IKKb", "value": 0.2, "unit": "%"}, {"measurement": "inhibition at 1 µM", "setting": "FGFR3[K650E]", "value": 5.6, "unit": "%"}, {"measurement": "inhibition at 1 µM", "setting": "PKD3", "value": -1.4, "unit": "%"}, {"measurement": "inhibition at 1 µM", "setting": "PKCb1", "value": -1.9, "unit": "%"}, {"measurement": "inhibition at 1 µM", "setting": "FLT1", "value": 1.9, "unit": "%"}, {"measurement": "inhibition at 1 µM", "setting": "EphA4", "value": 1, "unit": "%"}]}
